Assay results published in US11208412B2 (DAEGU-GYEONGBUK MEDICAL INNOVATION FOUNDATION, priority 2017, dated 2021).

Molecular target: T1, recombinant LRRK2 kinase (Homo sapiens, UniProt Q5S007)
T1 construct: purchased Signal Chem, Richmond, BC, Canada
Experiment: LRRK2 kinase inhibition (Kinase-Glo luminescence)
Type: biochemical
Details: IC50 grade; 25 μmol/L ATP, LRRKtide, 30° C. 2 hours; read-out: Enzyme activity LRRK2
Method: Upon completion of the reaction, an equal amount of Kinase-Glo (Promega, Madison, Wis.) solution was added thereto, followed by reaction for 40 minutes. A detection solution was added thereto, followed by further reaction at room temperature for 30 minutes. Then, IC50 of kinase was calculated by measuring the amount of luciferase using a microplate ELISA reader (Bio-Tek).

T1 sequence (Q5S007 whole entry): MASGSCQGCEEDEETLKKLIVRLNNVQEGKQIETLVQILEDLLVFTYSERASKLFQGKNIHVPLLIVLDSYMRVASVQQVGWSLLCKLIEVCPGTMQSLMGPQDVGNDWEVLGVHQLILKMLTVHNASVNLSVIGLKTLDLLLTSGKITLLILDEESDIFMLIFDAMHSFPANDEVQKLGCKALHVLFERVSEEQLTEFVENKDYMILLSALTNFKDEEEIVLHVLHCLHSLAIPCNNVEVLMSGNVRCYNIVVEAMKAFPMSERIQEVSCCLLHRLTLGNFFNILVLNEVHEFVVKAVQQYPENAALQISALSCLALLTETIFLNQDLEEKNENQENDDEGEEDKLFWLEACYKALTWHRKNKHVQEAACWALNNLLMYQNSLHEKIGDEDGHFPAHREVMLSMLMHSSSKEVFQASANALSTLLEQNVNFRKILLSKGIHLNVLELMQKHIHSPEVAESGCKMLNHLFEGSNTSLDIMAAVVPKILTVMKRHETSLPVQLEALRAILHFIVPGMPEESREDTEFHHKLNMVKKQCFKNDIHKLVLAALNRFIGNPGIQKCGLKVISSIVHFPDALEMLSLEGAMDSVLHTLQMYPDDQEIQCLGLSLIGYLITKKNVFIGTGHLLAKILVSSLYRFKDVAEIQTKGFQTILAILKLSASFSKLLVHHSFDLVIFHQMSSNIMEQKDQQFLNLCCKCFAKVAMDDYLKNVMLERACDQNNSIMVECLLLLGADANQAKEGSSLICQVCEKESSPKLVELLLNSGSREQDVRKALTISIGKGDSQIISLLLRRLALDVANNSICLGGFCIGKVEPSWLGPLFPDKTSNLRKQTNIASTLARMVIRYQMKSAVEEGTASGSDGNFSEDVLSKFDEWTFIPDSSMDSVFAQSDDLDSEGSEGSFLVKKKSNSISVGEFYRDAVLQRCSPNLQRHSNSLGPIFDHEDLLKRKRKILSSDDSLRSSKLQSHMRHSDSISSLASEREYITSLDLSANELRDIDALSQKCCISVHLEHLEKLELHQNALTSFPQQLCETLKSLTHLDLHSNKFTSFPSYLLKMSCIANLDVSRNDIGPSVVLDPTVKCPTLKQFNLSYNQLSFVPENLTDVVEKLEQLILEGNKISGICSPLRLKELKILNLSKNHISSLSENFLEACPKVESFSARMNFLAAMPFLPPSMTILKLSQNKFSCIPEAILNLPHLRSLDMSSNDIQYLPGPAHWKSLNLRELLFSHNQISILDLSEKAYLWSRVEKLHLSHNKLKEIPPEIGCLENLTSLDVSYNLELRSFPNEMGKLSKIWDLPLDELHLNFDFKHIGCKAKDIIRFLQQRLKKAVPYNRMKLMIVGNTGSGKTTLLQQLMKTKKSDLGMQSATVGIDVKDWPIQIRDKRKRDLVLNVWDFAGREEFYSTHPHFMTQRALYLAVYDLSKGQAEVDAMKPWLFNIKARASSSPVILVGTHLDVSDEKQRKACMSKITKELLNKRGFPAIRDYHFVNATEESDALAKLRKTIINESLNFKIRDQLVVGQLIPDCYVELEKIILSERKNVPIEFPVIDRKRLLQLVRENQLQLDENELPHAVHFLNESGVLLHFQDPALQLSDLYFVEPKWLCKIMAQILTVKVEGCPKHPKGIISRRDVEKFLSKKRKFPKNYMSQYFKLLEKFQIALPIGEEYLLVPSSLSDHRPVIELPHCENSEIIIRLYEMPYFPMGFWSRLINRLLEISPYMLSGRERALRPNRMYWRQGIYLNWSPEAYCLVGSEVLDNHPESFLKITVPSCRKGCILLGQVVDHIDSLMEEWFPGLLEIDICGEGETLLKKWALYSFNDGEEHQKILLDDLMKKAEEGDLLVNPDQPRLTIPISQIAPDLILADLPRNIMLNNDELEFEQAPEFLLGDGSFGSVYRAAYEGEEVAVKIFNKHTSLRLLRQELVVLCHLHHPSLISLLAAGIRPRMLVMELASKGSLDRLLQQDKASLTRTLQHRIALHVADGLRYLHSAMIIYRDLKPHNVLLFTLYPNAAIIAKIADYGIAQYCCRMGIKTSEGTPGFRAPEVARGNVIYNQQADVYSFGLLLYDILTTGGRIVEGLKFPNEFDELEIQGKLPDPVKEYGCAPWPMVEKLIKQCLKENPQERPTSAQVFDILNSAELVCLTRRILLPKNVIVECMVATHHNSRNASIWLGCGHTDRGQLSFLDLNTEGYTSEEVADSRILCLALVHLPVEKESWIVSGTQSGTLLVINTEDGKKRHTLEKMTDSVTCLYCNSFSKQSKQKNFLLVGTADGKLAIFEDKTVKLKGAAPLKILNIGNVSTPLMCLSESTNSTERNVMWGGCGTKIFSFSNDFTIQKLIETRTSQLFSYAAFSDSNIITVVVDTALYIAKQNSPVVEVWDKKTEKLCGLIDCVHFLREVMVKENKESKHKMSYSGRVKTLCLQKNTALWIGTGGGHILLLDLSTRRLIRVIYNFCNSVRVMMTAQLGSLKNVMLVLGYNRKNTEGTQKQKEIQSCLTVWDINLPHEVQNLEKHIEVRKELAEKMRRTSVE

| SMILES | IC50 [nM] |
| --- | --- |
| COc1cc(C(=O)N2CCO[C@H](C)C2)ccc1Nc1nc(OC2(C)CC2)c2c(C#N)c[nH]c2n1 [Example 98, (R)-2-((2-methoxy-4-(2-methylmorpholine-4-carbonyl)phenyl)amino)-4-(1-methylcyclopropoxy)-7H-pyrrolo[2,3d]carbonitrile] | 10 to 100 |
| COc1cc(C(=O)N2C[C@@H](C)O[C@@H](C)C2)ccc1Nc1nc(OC2(C)CC2)c2c(C#N)c[nH]c2n1 [Example 100, 2-((4-((2R,6S)-2,6-dimethylmorpholine-4-carbonyl)-2-methoxyphenyl)amino)-4-(1-methylcyclopropoxy)-7H-pyrrolo[2,3-d]pyrimidine-5-carbonitrile] | 10 to 100 |
| CCNc1nc(Nc2cnn([C@H]3CCN(C4COC4)C[C@@H]3F)c2Cl)nc2[nH]cc(C(F)(F)F)c12 [Example 102, N^2-(5-chloro-1-((3S,4S)-3-fluoro-1-(oxetane-3-yl)piperidine-4-yl)-1H-pyrazole-4-yl)-N^4-ethyl-5-(trifluoromethyl)-7H-pyrrolo[2,3-d]pyrimidine-2,4-diamine] | 10 to 100 |
| CCNc1nc(Nc2ccc(C(=O)N3CCOCC3)cc2OC)nc2[nH]cc(C(F)(F)F)c12 [Example 105, (4-((4-(ethylamino)-5-(trifluoromethyl)-7H-pyrrolo[2,3-d]pyrimidine-2-yl)amino)-3-methoxyphenyl)(morpholino)methanone] | 10 to 100 |
| CCNc1nc(Nc2ccc(C(=O)N3CCO[C@H](C)C3)cc2OC)nc2[nH]cc(C(F)(F)F)c12 [Example 108, (R)-(4-((4-(ethylamino)-5-(trifluoromethyl)-7H-pyrrolo[2,3-d]pyrimidine-2-yl)amino)-3-methoxyphenyl)(2-methylmorpholino)methanone] | 10 to 100 |
| CCNc1nc(Nc2ccc(C(=O)N3C[C@@H](C)O[C@@H](C)C3)cc2OC)nc2[nH]cc(C(F)(F)F)c12 [Example 109] | > 100 |
| CCNc1nc(Nc2ccc(C(=O)N3CCC(F)(F)CC3)cc2OC)nc2[nH]cc(C(F)(F)F)c12 [Example 110, (4,4-difluoropiperidine-1-yl)(4-((4-(ethylamino)-5-(trifluoromethyl)-7H-pyrrolo[2,3-d]pyrimidine-2-yl)amino)-3-methoxyphenyl)methanone] | > 100 |
| CNc1nc(Nc2ccc(C(=O)N3CCOCC3)cc2OC)nc2[nH]cc(C(F)(F)F)c12 [Example 112, (3-methoxy-4-((4-(methylamino)-5-(trifluoromethyl)-7H-pyrrolo[2,3-d]pyrimidine-2-yl)amino)phenyl)(morpholino)methanone] | 10 to 100 |
| F[C@H]1CN(C2COC2)CC[C@@H]1n1ncc(Nc2nc(NC3CC3)c3c(C(F)(F)F)c[nH]c3n2)c1Cl [Example 117, N^2-(5-chloro-1-((3S,4S)-3-fluoro-1-(oxetane-3-yl)piperidine-4-yl)-1H-pyrazole-4-yl)-N^4-cyclopropyl-5-(trifluoromethyl)-7H-pyrrolo[2,3-d]pyrimidine-2,4-diamine] | 10 to 100 |
| COc1cc(C(=O)N2CCOCC2)ccc1Nc1nc(OC2CCOC2)c2c(C(F)(F)F)c[nH]c2n1 (stereo not shown) [Example 124, (3-methoxy-4-((4-((tetrahydrofuran-3-yl)oxy)-5-(trifluoromethyl)-7H-pyrrolo[2,3-d]pyrimidine-2-yl)amino)phenyl)(morpholino)methanone] | 10 to 100 |
| F[C@H]1CN(C2COC2)CC[C@@H]1n1ncc(Nc2nc(OC3CCOC3)c3c(C(F)(F)F)c[nH]c3n2)c1Cl (stereo partly shown) [Example 127] | 10 to 100 |
| CCNc1nc(Nc2cc3c(cc2Cl)C(=O)N(C)C3)nc2[nH]cc(C#N)c12 [Example 128, 2-((6-chloro-2-methyl-1-oxoisoindol-5-yl)amino)-4-(ethylamino)-7H-pyrrolo[2,3-d]pyrimidine-5-carbonitrile] | > 100 |
| CCNc1nc(Nc2cc3c(cc2OC)C(=O)N(C)C3)nc2[nH]cc(C#N)c12 [Example 130, 4-(ethylamino)-2-((6-methoxy-2-methyl-1-oxoisoindol-5-yl)amino)-7H-pyrrolo[2,3-d]pyrimidine-5-carbonitrile] | < 10 |
| CCNc1nc(Nc2cc3c(cc2OC)N(C)C(=O)C(C)(C)O3)nc2[nH]cc(C#N)c12 [Example 131, 4-(ethylamino)-2-((6-methoxy-2,2,4-trimethyl-3-oxo-3,4-dihydro-2H-benzo[b][1,4]oxazine-7-yl)amino)-7H-pyrrolo[2,3-d]pyrimidine-5-carbonitrile] | 10 to 100 |
| CCNc1nc(Nc2sc(C(C)(C)C#N)nc2C)nc2[nH]cc(C#N)c12 [Example 132, 2-((2-(2-cyanopropane-2-yl)-4-methylthiazole-5-yl)amino)-4-(ethylamino)-7H-pyrrolo[2,3-d]pyrimidine-5-carbonitrile] | 10 to 100 |

Continued, values first:

| IC50 [nM] | SMILES |
| --- | --- |
| < 10 | COc1cc(C(=O)N2CCOCC2)ccc1Nc1nc(O[C@H]2CCOC2)c2c(C#N)c[nH]c2n1 [Example 88, (S)-2-((2-methoxy-4-(morpholine-4-carbonyl)phenyl)amino)-4-((tetrahydrofuran-3-yl)oxy)-7H-pyrrolo[2,3-d]pyrimidine-5-carbonitrile] |
| < 10 | COc1cc(C(=O)N2CCOCC2)ccc1Nc1nc(O[C@@H]2CCOC2)c2c(C#N)c[nH]c2n1 [Example 89, (R)-2-((2-methoxy-4-(morpholine-4-carbonyl)phenyl)amino)-4-((tetrahydrofuran-3-yl)oxy)-7H-pyrrolo[2,3-d]pyrimidine-5-carbonitrile] |
| < 10 | COc1cc(C(=O)N2CCOCC2)ccc1Nc1nc(OC(C)C)c2c(C#N)c[nH]c2n1 [Example 90, 4-isoprofoxy-2-((2-methoxy-4-(morpholine-4-carbonyl)phenyl)amino)-7H-pyrrolo[2,3-d]pyrimidine-5-carbonitrile] |
| < 10 | COc1cc(C(=O)N2CCC(N3CCOCC3)CC2)ccc1Nc1nc(OC(C)C)c2c(C#N)c[nH]c2n1 [Example 91, 4-isoprofoxy-2-((2-methoxy-4-(4-morpholinopiperidine-1-carbonyl)phenyl)amino)-7H-pyrrolo[2,3-d] pyrimidine-5-carbonitrile] |
| < 10 | COc1cc(C(=O)N2CCOCC2)c(F)cc1Nc1nc(O[C@H]2CCOC2)c2c(C#N)c[nH]c2n1 [Example 92, (S)-2-((5-fluoro-2-methoxy-4-(morpholine-4-carbonyl)phenyl)amino)-4-((tetrahydrofuran-3-yl)oxy)-7H-pyrrolo[2,3 d]pyrimidine-5-carbonitrile] |
| < 10 | COc1cc(C(=O)N2CCC(N3CCOCC3)CC2)c(F)cc1Nc1nc(O[C@H]2CCOC2)c2c(C#N)c[nH]c2n1 [Example 93, (S)-2-((5-fluoro-2-methoxy-4-(4-morpholinopiperidine-1-carbonyl)phenyl)amino)-4-((tetrahydrofuran-3-yl)oxy)-7H-pyrrolo[2,3-d]pyrimidine-5-carbonitrile] |
| < 10 | Cc1nn(C(C)(C)C#N)cc1Nc1nc(OC2(C)CC2)c2c(C#N)c[nH]c2n1 [Example 94, 2-((1-(2-cyanopropane-2-yl)-3-methyl-1H-pyrazole-4-yl)amino)-4-(1-methylcyclopropoxy)-7H-pyrrolo[2,3-d]pyrimidine-5-carbonitrile] |
| < 10 | COc1cc(C(=O)N2CCOCC2)ccc1Nc1nc(OC2(C)CC2)c2c(C#N)c[nH]c2n1 [Example 95, 2-((2-methoxy-4-(morpholine-4-carbonyl)phenyl)amino)-4-(1-methylcyclopropoxy)-7H-pyrrolo[2,3-d]pyrimidine-5-carbonitrile] |
| < 10 | CC1(Oc2nc(Nc3cnn([C@H]4CCN(C5COC5)C[C@@H]4F)c3Cl)nc3[nH]cc(C#N)c23)CC1 [Example 96, 2-((5-chloro-1-((3S,4S)-3-fluoro-1-(oxetane-3-yl)piperidine-4-yl)-1H-pyrazole-4-yl)amino)(1-methylcyclopropoxy)-7H-pyrrolo[2,3-]pyrimidine-5-carbonitrile] |
| < 10 | COc1cc(C(=O)N2CCOCC2)c(F)cc1Nc1nc(OC2(C)CC2)c2c(C#N)c[nH]c2n1 [Example 97, 2-((5-fluoro-2-methoxy-4-(morpholine-4-carbonyl)phenyl)amino)-4-(1-methylcyclopropoxy)-7H-pyrrolo[2,3-d]pyrimidine-5-carbonitrile] |
| < 10 | COc1cc(C(=O)N2CCO[C@@H](C)C2)ccc1Nc1nc(OC2(C)CC2)c2c(C#N)c[nH]c2n1 [Example 99, (S)-2-((2-methoxy-4-(2-methylmorpholine-4-carbonyl)phenyl)amino)-4-(1-methylcyclopropoxy)-7H-pyrrolo[2,3-d]pyrimidine-5-carbonitrile] |
| < 10 | CC1(Oc2nc(Nc3cnn([C@H]4CCN(C5COC5)C[C@@H]4F)c3)nc3[nH]cc(C#N)c23)CC1 [Example 101, 2-((1-((3S,4S)-3-fluoro-1-(oxetane-3-yl)piperidine-4-yl)-1H-pyrazole-4-yl)amino)-4-(1-methylcyclopropoxy)-7H-pyrrolo[2,3-d]pyrimidine-5-carbonitrile] |
| < 10 | CCNc1nc(Nc2cn(C(C)(C)C#N)nc2C)nc2[nH]cc(C(F)(F)F)c12 [Example 103, 2-(4-((4-(ethylamino)-5-(trifluoromethyl)-7H-pyrrolo[2,3-d]pyrimidine-2-yl)amino)-3-methyl-1H-pyrazole-1-yl)-2-methylpropanenitrile] |
| < 10 | CCNc1nc(Nc2ccc(C(=O)N3CCC(N4CCN(C)CC4)CC3)cc2OC)nc2[nH]cc(C(F)(F)F)c12 [Example 106] |
| < 10 | CCNc1nc(Nc2ccc(C(=O)N3CCN(C)CC3)cc2OC)nc2[nH]cc(C(F)(F)F)c12 [Example 107, (4-((4-(ethylamino)-5-(trifluoromethyl)-7H-pyrrolo[2,3-d]pyrimidine-2-yl)amino)-3-methoxyphenyl)(4-methylpiperazine-1-yl)methanone] |
| < 10 | COc1cc(C(=O)N2CCOCC2)ccc1Nc1nc(NC2CC2)c2c(C(F)(F)F)c[nH]c2n1 [Example 118, (4-((4-(cyclopropylamino)-5-(trifluoromethyl)-7H-pyrrolo[2,3-d]pyrimidine-2-yl)amino)-3-methoxyphenyl)(morpholino)methanone] |
